Experimental findings from ChEMBL document CHEMBL1144074, “Glycoside primers of Psittacanthus cucullaris” (J Nat Prod, 1999) are described below.

This assay relates to CHO. The assay is described as follows: Stimulation of glycosaminoglycan chains formation in xylosyltransferase-deficient CHO pgsA-745 cells by liquid scintillation spectrophotometry. The class given is functional, cell-based. To be noted: Cricetulus griseus.

Each structure is given as a SMILES string. Calls of active or inactive are those of the source. The calls are words filed in the database; no cut-off is given here.

Consider `COc1c(O)cc2c(=O)oc3c(OC)c(O[C@@H]4OC[C@@H](O)[C@H](O)[C@H]4O)cc4c(=O)oc1c2c34`, for which the outcome was Active.

Regarding `COc1cc2c(=O)oc3c(OC)c(O[C@@H]4OC[C@@H](O)[C@H](O)[C@H]4O)cc4c(=O)oc(c1OC)c2c34`, the outcome was Active.
